Consider ten compounds from ChEMBL document CHEMBL1201862, “PubChem BioAssay data set” (2004).

The structures appear in SMILES notation. Where a name gives a salt, the structure may show the parent alone.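 Method: 48-hour compound exposure of cells in 96-well plates, five concentrations, linear interpolation of endpoints. GI50 is the concentration that inhibits growth by half.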 Activity calls are given as the source filed them. No stated cut-off is given here; in the data, active = GI50 up to about 1.1 µM and inactive = higher. Where a SMILES comes first, the peptide text is derived from it. [ ]: non-standard residue; d: D form. The star is where a group is joined. ξ: configuration not given here. ξD = NC(CC(=O)O)C(=O)O; Boc = CC(C)(C)OC(=O)*; Aib = CC(C)(N)C(=O)O; OBn = c1ccc(CO*)cc1

Test systems include 786-0; UO-31; RXF 393; ACHN; RPMI-8226; SK-MEL-2; HT-29; Malme-3M; SK-OV-3; A498; SNB-19; NCI-H522; LOX IMVI; SK-MEL-5; SW-620; EKVX; OVCAR-5; HCT-116; NCI/ADR-RES; CAKI-1.
Holding throughout (test): inhibition of tumour cell growth, NCI panel, 48 h

Regarding `OC1(c2ccc3ccccc3c2)c2c(c3ccccc3c3ccccc23)C2=NCCN21` (stereo not given), the GI50 in the test on 786-0 is 7.5 µM (inactive); in the test with UO-31, 6.92 µM (inactive); in the test with RXF 393, 2.47 µM (inactive); in the test on ACHN it was 8.22 µM (inactive); with RPMI-8226, 2.52 µM (inactive); with SK-MEL-2 it was 7.16 µM (inactive). Moreover, the GI50 was 2.8 µM (inactive) in the test on HT-29; 10.4 µM (inactive) in the test with Malme-3M; 6.68 µM (inactive) in the test on SK-OV-3; 12.1 µM (inactive) in the test on A498; 12.9 µM (inactive) in the test with SNB-19; 3.85 µM (inactive) in the test with NCI-H522. Besides, the GI50 in the test on LOX IMVI was 2.28 µM (inactive); in the test with SK-MEL-5, 17 µM (inactive); in the test with SW-620, 3.34 µM (inactive); with EKVX, 5.51 µM (inactive); in the test on OVCAR-5 it was 7.78 µM (inactive); with HCT-116, 2.88 µM (inactive). In addition, the GI50 in the test with NCI/ADR-RES was 2.13 µM (inactive); with CAKI-1 it was 11.7 µM (inactive).
For the compound `O=[N+]([O-])c1ccc2ncccc2c1CCc1c([N+](=O)[O-])ccc2ncccc12`, the GI50 with 786-0, in the test with UO-31, in the test with RXF 393, in the test on ACHN, in the test on RPMI-8226 and in the test with SK-MEL-2 was > 100 µM (inactive) throughout. Also, the GI50 in the test on HT-29, in the test on Malme-3M, in the test on SK-OV-3, in the test with A498, with SNB-19 and in the test on NCI-H522 was > 100 µM (inactive) throughout. For the same compound, the GI50 with LOX IMVI, in the test on SK-MEL-5, in the test with SW-620, in the test with EKVX, in the test with OVCAR-5 and with HCT-116 was > 100 µM (inactive) throughout. In addition, the GI50 with NCI/ADR-RES and with CAKI-1 was > 100 µM (inactive) each time.
With `COc1cc2c(c(OC)c1OC)-c1ccc(SC)c(=O)cc1C(NC(=O)c1ccccc1)CC2` (stereo not given), the GI50 with 786-0 was < 0.01 µM (active); in the test on UO-31, 0.272 µM (active); with RXF 393, 0.0444 µM (active); in the test with ACHN, < 0.01 µM (active); in the test with RPMI-8226, < 0.01 µM (active); in the test with SK-MEL-2, < 0.01 µM (active). The GI50 with HT-29 was < 0.01 µM (active); with Malme-3M, < 0.01 µM (active); with SK-OV-3, 0.027 µM (active); in the test on A498 it was < 0.01 µM (active); in the test with SNB-19 it was < 0.01 µM (active); with NCI-H522, < 0.01 µM (active). Also, the GI50 in the test on LOX IMVI was < 0.01 µM (active); with SK-MEL-5, < 0.01 µM (active); in the test with SW-620 it was < 0.01 µM (active); with EKVX, 21.2 µM (inactive); in the test with OVCAR-5, 0.303 µM (active); in the test with HCT-116, < 0.01 µM (active). The GI50 is 0.0103 µM (active) in the test with NCI/ADR-RES and < 0.01 µM (active) in the test with CAKI-1.
As for `COc1ccc(C(=O)Cn2c(C(C)=O)nc3ccccc32)cc1`, the GI50 in the test on 786-0 was 6.59 µM (inactive); with UO-31, 11.8 µM (inactive); in the test on RXF 393, > 56.4 µM (inactive); with ACHN, 8.59 µM (inactive); with RPMI-8226 it was 14.6 µM (inactive); with SK-MEL-2, 12.7 µM (inactive). The GI50 in the test on HT-29 is 23.4 µM (inactive); with Malme-3M, 41 µM (inactive); in the test with SK-OV-3, 14.7 µM (inactive); in the test on A498 it was 67 µM (inactive); with SNB-19, > 34.1 µM (inactive); in the test on NCI-H522, 3.86 µM (inactive). The GI50 was 2.91 µM (inactive) in the test on LOX IMVI; 4.15 µM (inactive) with SK-MEL-5; 5.56 µM (inactive) in the test on SW-620; 76.9 µM (inactive) in the test with EKVX; 44.4 µM (inactive) with OVCAR-5; 6.15 µM (inactive) in the test on HCT-116. The GI50 was 3.55 µM (inactive) in the test with NCI/ADR-RES and 7.21 µM (inactive) with CAKI-1.
Consider `CC#CC(=O)SCCNC(=O)CC`, for which the GI50 in the test on 786-0 is > 6.7 µM (inactive); in the test on UO-31 it was > 10 µM (inactive); in the test with RXF 393, 4.53 µM (inactive); in the test with ACHN, > 10 µM (inactive); with RPMI-8226 it was > 5.15 µM (inactive); in the test on SK-MEL-2 it was > 10 µM (inactive). The GI50 was > 10 µM (inactive) with HT-29; > 10 µM (inactive) with Malme-3M; > 10 µM (inactive) with SK-OV-3; > 10 µM (inactive) with A498; > 10 µM (inactive) in the test on SNB-19; 1.62 µM (inactive) in the test with NCI-H522. The GI50 with LOX IMVI is 3.31 µM (inactive); with SK-MEL-5, 8.39 µM (inactive); in the test on SW-620, 3.01 µM (inactive); with EKVX, > 10 µM (inactive); in the test with OVCAR-5, > 10 µM (inactive); in the test with HCT-116 it was 8.51 µM (inactive). The GI50 with NCI/ADR-RES and in the test on CAKI-1 was > 10 µM (inactive) in each case.
Regarding `Cc1nnc(S(=O)(=O)c2ccc(/N=N/c3c(N)nc(N)nc3N)cc2)s1`, the GI50 with 786-0, in the test on UO-31, in the test with RXF 393, with ACHN, in the test on RPMI-8226 and in the test with SK-MEL-2 was > 100 µM (inactive) each time. Besides, the GI50 with HT-29, in the test on Malme-3M, in the test with SK-OV-3, in the test with A498, with SNB-19 and with NCI-H522 was > 100 µM (inactive) throughout. Further, the GI50 in the test with LOX IMVI, in the test with SK-MEL-5, in the test on SW-620, in the test with EKVX, with OVCAR-5 and in the test with HCT-116 was > 100 µM (inactive) each time. Moreover, the GI50 in the test on NCI/ADR-RES and with CAKI-1 was > 100 µM (inactive) throughout.
For `CC(C)=CCCC(C)C1=C(O)C(=O)C(C)=CC1=O` (stereo not given), the GI50 was 5.86 µM (inactive) in the test on 786-0; 7.82 µM (inactive) in the test on UO-31; 4.74 µM (inactive) in the test with RXF 393; 1.88 µM (inactive) with ACHN; 0.838 µM (active) in the test with RPMI-8226; 17.7 µM (inactive) in the test on SK-MEL-2. Moreover, the GI50 was 16.3 µM (inactive) in the test on HT-29; 9.29 µM (inactive) in the test on Malme-3M; 28.1 µM (inactive) with SK-OV-3; 18.7 µM (inactive) with A498; 38.1 µM (inactive) in the test on SNB-19; 2.1 µM (inactive) in the test on NCI-H522. The GI50 was 3.66 µM (inactive) in the test on LOX IMVI; 11.6 µM (inactive) with SK-MEL-5; 5.94 µM (inactive) in the test on SW-620; 5.94 µM (inactive) in the test on EKVX; 16.4 µM (inactive) with OVCAR-5; 4.71 µM (inactive) in the test with HCT-116. The GI50 in the test on NCI/ADR-RES was 12.2 µM (inactive); in the test with CAKI-1, 5.89 µM (inactive).
For `C=C1CC[C@@]2(C)[C@@H]([C@@H]1C)[C@H]1CC[C@@H]3[C@@]4(C)CC[C@H](O)C(C)(C)[C@@H]4CC[C@@]3(C)[C@]1(C)C[C@@H]2O`, the GI50 was 2.7 µM (inactive) with 786-0; 2.5 µM (inactive) in the test on UO-31; 1.77 µM (inactive) in the test with RXF 393; 2.11 µM (inactive) with ACHN; > 100 µM (inactive) with RPMI-8226; 3.67 µM (inactive) in the test on SK-MEL-2. In addition, the GI50 in the test on HT-29 is 3.9 µM (inactive); in the test on Malme-3M, 3.25 µM (inactive); in the test with SK-OV-3, 3.79 µM (inactive); in the test with A498, 2.16 µM (inactive); with SNB-19 it was 2.32 µM (inactive); with NCI-H522, 1.95 µM (inactive). Also, the GI50 was 1.99 µM (inactive) in the test with LOX IMVI; 5.16 µM (inactive) with SK-MEL-5; 4.03 µM (inactive) in the test on SW-620; 3 µM (inactive) in the test on EKVX; 4.25 µM (inactive) in the test on OVCAR-5; 2.99 µM (inactive) in the test with HCT-116. Also, the GI50 was 3.27 µM (inactive) in the test on NCI/ADR-RES and 2.42 µM (inactive) in the test with CAKI-1.
In the case of `CC(C)(C)OC(=O)NC(CC(=O)OCc1ccccc1)C(=O)NC(C)(C)C(N)=O` (stereo not given) (Boc-[ξD](OBn)-[Aib]-NH2), the GI50 in the test with 786-0, in the test on UO-31, in the test on RXF 393, in the test on ACHN, in the test on RPMI-8226 and in the test with SK-MEL-2 was > 100 µM (inactive) in each case. Moreover, the GI50 in the test with HT-29, with Malme-3M, with SK-OV-3, in the test with A498, with SNB-19 and in the test with NCI-H522 was > 100 µM (inactive) in each case. Further, the GI50 in the test with LOX IMVI, in the test on SK-MEL-5, in the test with SW-620, in the test on EKVX, in the test on OVCAR-5 and with HCT-116 was > 100 µM (inactive) each time. Moreover, the GI50 with NCI/ADR-RES and in the test on CAKI-1 was > 100 µM (inactive) in each case.
On to `O=C1c2cccc3cccc(c23)C(=O)N1CCCNCCCCNCCCNCCCN1C(=O)c2cccc3cccc(c23)C1=O` [BISNAPHTHALIMIDOPROPYL SPERMIDINE TRIHYDROBROMIDE], for which the GI50 with 786-0 was 0.175 µM (active); with UO-31 it was 6.5 µM (inactive); in the test with RXF 393 it was 0.473 µM (active); in the test with ACHN, 1.22 µM (inactive); with RPMI-8226 it was 0.355 µM (active); with SK-MEL-2, 1.22 µM (inactive). For the same compound, the GI50 was 0.231 µM (active) in the test with HT-29; 0.513 µM (active) in the test with Malme-3M; 1.5 µM (inactive) in the test on SK-OV-3; 0.977 µM (active) in the test with A498; 0.403 µM (active) in the test on SNB-19; 0.0859 µM (active) in the test on NCI-H522. The GI50 in the test on LOX IMVI is 0.316 µM (active); with SK-MEL-5 it was 2.02 µM (inactive); with SW-620, 0.555 µM (active); with EKVX it was 1.18 µM (inactive); in the test with OVCAR-5, 0.585 µM (active); in the test with HCT-116 it was 0.399 µM (active). For the same compound, the values for the GI50 in the test on NCI/ADR-RES and with CAKI-1 were 19.9 µM (inactive) and 4.01 µM (inactive), respectively.
